{"source": "ChEMBL document CHEMBL5316313", "about": "“Discovery of Novel 3-Phenylpiperidine Derivatives Targeting the β-Catenin/B-Cell Lymphoma 9 Interaction as a Single Agent and in Combination with the Anti-PD-1 Antibody for the Treatment of Colorectal Cancer” (J Med Chem, 2023)", "target": "T1, beta-catenin-B-cell lymphoma 9 protein complex (Homo sapiens, UniProt P35222)", "T1 sequence (P35222 whole entry)": "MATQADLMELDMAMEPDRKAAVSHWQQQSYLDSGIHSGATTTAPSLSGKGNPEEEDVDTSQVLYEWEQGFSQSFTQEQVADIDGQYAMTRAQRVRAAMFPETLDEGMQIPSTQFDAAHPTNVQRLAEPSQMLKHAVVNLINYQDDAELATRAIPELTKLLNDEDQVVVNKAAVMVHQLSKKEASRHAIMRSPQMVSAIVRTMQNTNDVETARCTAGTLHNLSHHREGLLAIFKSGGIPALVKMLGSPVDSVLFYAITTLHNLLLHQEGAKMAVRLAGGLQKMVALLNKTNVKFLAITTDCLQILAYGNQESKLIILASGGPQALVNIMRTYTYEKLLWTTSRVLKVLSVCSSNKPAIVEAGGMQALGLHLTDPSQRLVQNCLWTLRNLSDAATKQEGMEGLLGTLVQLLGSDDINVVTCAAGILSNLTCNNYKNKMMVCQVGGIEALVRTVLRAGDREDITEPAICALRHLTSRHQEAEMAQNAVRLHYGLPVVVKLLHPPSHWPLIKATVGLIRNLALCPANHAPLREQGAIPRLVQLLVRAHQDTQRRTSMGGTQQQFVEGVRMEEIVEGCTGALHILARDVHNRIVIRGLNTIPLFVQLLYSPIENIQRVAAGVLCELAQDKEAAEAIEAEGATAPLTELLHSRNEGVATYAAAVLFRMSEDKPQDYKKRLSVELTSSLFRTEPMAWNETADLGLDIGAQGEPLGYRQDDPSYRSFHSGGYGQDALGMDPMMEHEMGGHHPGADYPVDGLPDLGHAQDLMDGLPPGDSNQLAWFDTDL", "T1 sequence (O00512 whole entry)": "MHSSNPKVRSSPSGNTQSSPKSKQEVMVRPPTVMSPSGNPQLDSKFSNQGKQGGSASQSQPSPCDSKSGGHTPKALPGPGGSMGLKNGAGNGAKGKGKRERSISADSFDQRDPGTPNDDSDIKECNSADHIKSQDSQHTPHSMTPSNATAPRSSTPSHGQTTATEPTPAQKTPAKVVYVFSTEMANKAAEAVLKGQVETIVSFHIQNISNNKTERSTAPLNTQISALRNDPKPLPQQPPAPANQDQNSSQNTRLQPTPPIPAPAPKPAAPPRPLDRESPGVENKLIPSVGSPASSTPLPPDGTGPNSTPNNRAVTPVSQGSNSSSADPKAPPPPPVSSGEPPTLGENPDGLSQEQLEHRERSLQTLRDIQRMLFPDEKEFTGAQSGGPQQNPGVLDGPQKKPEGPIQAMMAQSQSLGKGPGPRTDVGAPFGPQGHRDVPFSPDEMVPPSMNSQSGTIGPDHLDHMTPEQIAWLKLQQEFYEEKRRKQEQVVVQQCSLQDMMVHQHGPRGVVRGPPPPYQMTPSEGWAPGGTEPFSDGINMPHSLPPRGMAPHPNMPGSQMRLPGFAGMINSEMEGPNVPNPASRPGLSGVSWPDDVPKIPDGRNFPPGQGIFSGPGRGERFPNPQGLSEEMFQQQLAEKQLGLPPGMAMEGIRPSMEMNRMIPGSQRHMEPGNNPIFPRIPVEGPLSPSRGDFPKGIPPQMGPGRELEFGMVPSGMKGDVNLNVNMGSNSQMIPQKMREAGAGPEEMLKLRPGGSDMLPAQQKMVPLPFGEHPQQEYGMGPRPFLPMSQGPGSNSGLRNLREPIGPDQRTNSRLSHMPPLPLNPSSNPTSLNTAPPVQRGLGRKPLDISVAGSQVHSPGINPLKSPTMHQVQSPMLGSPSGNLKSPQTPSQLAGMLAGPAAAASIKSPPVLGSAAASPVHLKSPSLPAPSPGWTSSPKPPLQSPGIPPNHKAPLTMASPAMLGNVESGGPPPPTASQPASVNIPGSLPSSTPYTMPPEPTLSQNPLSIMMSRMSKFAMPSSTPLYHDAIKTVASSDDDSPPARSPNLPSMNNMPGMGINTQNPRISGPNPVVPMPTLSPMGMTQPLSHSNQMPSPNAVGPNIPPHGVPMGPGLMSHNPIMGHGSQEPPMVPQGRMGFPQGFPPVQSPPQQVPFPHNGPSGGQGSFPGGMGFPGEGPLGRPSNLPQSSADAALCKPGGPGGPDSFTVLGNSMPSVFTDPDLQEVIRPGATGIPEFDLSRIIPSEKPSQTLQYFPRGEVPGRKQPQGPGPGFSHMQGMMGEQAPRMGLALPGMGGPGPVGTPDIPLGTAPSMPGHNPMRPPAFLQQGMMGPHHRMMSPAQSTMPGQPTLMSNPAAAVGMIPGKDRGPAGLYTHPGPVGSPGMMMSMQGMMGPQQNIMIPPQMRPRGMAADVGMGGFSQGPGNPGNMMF", "assay": "Inhibition of beta-catenin (unknown origin)/BCL9 (unknown origin) protein-protein interaction assessed as inhibition constant by AlphaScreen assay", "assay_type": "protein-complex assay", "note": "pKi: −log10 of the molar value."}
{"smiles": "O=C(Nc1ccc(O[C@H]2CCNC2)c(-c2cccc(-c3nn[nH]n3)c2)c1)c1ccc(O[C@H]2CCNC2)c(-c2ccc(F)c(F)c2)c1", "values": [{"measurement": "pKi", "value": 6.33}]}
